Test results taken from patent publication US20040048823A1 (priority 2000, published 2004).

How the values were obtained:
[1] = test system: HUVEC (Human umbilical vein endothelial cell); experiment: Tube formation assay (In Vitro Angiogenesis Assay Kit); assay type: cell-based
Method: HUVEC (Human umbilical vein endothelial cell, American Type Culture Collection, Manassas, Va.) cells were maintained in HAM's F-12K nutrient mixture (Sigma, St. Louis, Mo.) with 10% fetal bovine serum and endothelial cell growth supplement (Sigma, St. Louis, Mo.). Cells were plated onto a 1% gelatinized plastic surface and incubated in the presence of 5% CO2 at 37° C. Tube formation assay was performed using an In Vitro Angiogenesis Assay Kit. (Chemicon, Temecula, Calif.) with following procedures. A 50 μl of the Diluent Buffer-ECMatrix solution mixture was transferred to 96-well tissue culture plate and kept at 37° C. for 1 hour for solidification of the matrix solution. HUVEC cells were seeded onto the surface of the polymerized ECMatrix in each well and incubated in the presence of ethanol (control) or mycolactone (containing 1% of ethanol).

murine L929 cell line = conditions: cited from earlier work
murine J779 cell line = conditions: cited from earlier work
Hep3B cancer cells = experiment: Morphological change by transmission electron microscopy; assay type: cell-based, human; conditions: mycolactone 1 μg/ml, 24 hours
Method: Morphological change of Hep3B cancer cells was observed by transmission electron microscopy (hereinafter, TEM) Cancer cells (5×10^6) were cultured and treated with mycolactone (1 μg/ml). Cell were collected after 24 hours and fixed with 2.5% glutaraldehyde. The sample was treated with OsO4, dehydrated with ethanol, and embedded to […].

[2] = test system: bcl-2 family genes in Hep3B cells; experiment: Ribonuclease protection assay (RPA) of bcl-2 family gene mRNA; assay type: cell-based, human
Method: To find target genes of mycolactone, mRNA transcription levels of bcl-2 family genes were examined. Total RNA was prepared from mycolactone-treated Hep3B cells and the expression of 7 genes belonging to bcl-2 family by ribonuclease protection assay (RPA). Total RNA was prepared with RNeasy minikit (Qiagen Inc., Chatsworth, Calif.) as described below. Mycolactone treated cancer cells were collected and washed with PBS. Cells were suspended in lysis buffer containing β-mercaptoethanol. Cells were passed through a 20-G syringe for more than 5 times. Equal volume of 70% ethanol was added and the suspension was mixed well. The suspension was applied to RNeasy mini spin column. The column was centrifuged at 10,000 rpm for 15 seconds and washed 2 times with washing buffer plus PRE buffer. RNA attached to the column was eluted with RNase-free distilled water. RNA was stored at −70° C. before use.
The mRNA expression profile of bcl-2 family genes was examined by RPA using multi-probe RNase Protection Assay System (PharMingen, CA, USA) with the following procedures. Specific RNA probe labeled with radioisotope is synthesized and used for hybridization with the RNA prepared from each sample. After removal of single-stranded RNA that is not hybridized with the probe and the residual riboprobe, the sample is electrophoresed on a denaturing polyacrylamide gel. After autoradiography, the mRNA expression was analyzed through measuring the density of hybridized bands.
RPA is a 3-Step Procedure
1). Synthesis of probe: Probe is synthesized by incubating transcription mixture solution ([…], 1 μl GACU pool, 2 μl DTT, 4 μl 5× transcription buffer, 1 μl RPA template set, 1 μlA T7 polymerase) at 37° C. for 1 hour. The reaction was stopped by adding 2 μl of DNase. Probe synthesis was completed by phenol treatment and ethanol precipitation The precipitated probe was dissolved in 50 μl of hybridization buffer.
2) RNA preparation and hybridization: Total RNA prepared (10-20 μg) was kept at −70° C. for 15 minutes and dried completely in vacuum evaporator. Hybridization was performed by the following reactions; addition of 8 μl of hybridization buffer, vortexing and brief centrifuge; addition and mixing of 2 μl of probe diluted at about 3×10^5 cpm/μl; addition of mineral oil. Hybridization mixture was kept briefly at 90° C., then incubated at 56° C. for 12 to 16 hours. Hybridization was completed by incubating the mixture at 37° C. for 15 minutes.
3) RNase treatment, electrophoresis, and autoradiography: RNase mixture (100 μl) was added to the hybridization mixture and the non-hybridized RNA was removed by incubating at 30° C. for 45 minutes. RNase digestion was terminated by adding proteinase K mixture solution. After phenol treatment and ethanol precipitation, the sample was dried. The sample was nixed with 5 μl of 1× loading buffer, heated at 90° C. for 3-minutes, kept on ice, electrophoresed ort a denaturing polyacrylamide gel, dried, and exposed to X-ray film.

[3] = test system: Hep3B human hepatoma cells transplanted to nude mice; experiment: In vivo anticancer effect in nude mice
Method: Hep3B human hepatoma cells were transplanted to nude mice and tumor growth was induced for 2 to 3 weeks. Then, mycolactone was injected to the tumor tissue by 4-3 days method, that is, injection for 4 days and rest for 3 days. PBS solution (50 μl) with or without mycolactone (20 μg) was injected to tumor of treatment (T) or control (C) mouse, respectively. The tumor volume was estimated by measuring both long and short diameters. The tumor volume at the day of first injection was 101.3 mm^3 (C) or 105.9 mm^3 (T).

[4] = test system: cancer cell lines (Malme3M, SNU1, MDAMB231, MOLT4, TCCSUP, Hep3B); experiment: Mycolactone-induced cancer cell death under light microscope; assay type: cell-based; conditions: mycolactone final 1 μg/ml, 72 hours, compared to not-treated
Method: Cancer cell lines used for the experiment was as follows; 2 skin cancer cell lines (Malme3M and SK-Mel-24), 1 breast cancer cell line (MDAMB231), 1 leukemia cell line (MOLT4), 1 stomach cancer cell line (SNU1); 1 bladder cancer cell line (TCCSUP), 8 hepatoma cell lines (SK-Hep1, Hep3B, SNU182, SNU387, SNU398, SNU449, SNU475, and HepG2), 2 colon cancer cell lines (HT-29 and DLD-1), and 1 oral cavity cancer cell line (SCC-15). Cancer cells were cultured in RPMI1640 media containing 10% fetal bovine serum, penicillin (10 unit/ml), and streptomycin (100 μg/ml) in 75 cm^2 flask at 37° C. in the presence of 5% CO2.
After cultivation of cancer cells ([…]) in 6-well plate for 24 hours, mycolactone (final 1 μg/ml) was added and the cell morphology was observed after 72 hours under light microscope. Cancer cells became round up and died after mycolactone treatment.
FIGS. (1a to 1f) show the results in skin cancer (Malme3M), stomach cancer (SNU1), breast cancer (MDAMB231), leukemia (MOLT4), bladder cancer (TCCSUP), and hepatoma (Hep3B). The morphological change of colon and oral cavity cancers is not shown.

[5] = test system: CPP32 caspase and poly-ADP-ribose polymerase in Hep3B cancer cells; experiment: Western blot of CPP32 caspase activation and poly-ADP-ribose polymerase cleavage; assay type: cell-based, human; conditions: mycolactone final 1 μg/ml
Method: CPP32 caspase activation and following cleavage of poly-ADP-ribose polymerase, typical biochemical phenomena of apoptosis, were examined by Western-blotting. Hep3B cancer cells (5×10^6) were cultured and treated with mycolactone (final 1 μg/ml). Cells were collected after 2, 4, 8, 12, 24, or 48 hours and Western blot was performed with anti-CPP32 antibody (Oncogene, Mass., USA) or anti-poly-ADP-ribose polymerase antibody (Enzyme Systems Products, CA, USA). Protein preparation was performed as follows. Cells were suspended in 400 μl of lysis buffer (125 mM Tris-HCl [pH 6.8], 20% glycerol, 2% SDS, and 10% β-mercaptoethanol), vortexed for 30 seconds, and kept at 95° C. for 5 minutes Cell lysates were separated on a 10% SDS-polyacrylamide gel and transferred to nitrocellulose membrane. Antibody reaction was performed with the antibodies describe above. CPP32 caspase activation was started at 4 hours and maintained until 24 hours, while the cleavage of poly-ADP-ribose polymerase was started at 8 hours after mycolactone treatment. […] Pro-CPP32 and Active CPP32 as shown on left are CPP32 caspase (the caspase 3) before and after activation, respectively; PARP is poly-ADP-ribose polymerase; cleaved PARP is cleaved poly-ADP-ribose polymerase.

[6] = test system: Rb protein in SNU475 (Rb-positive cancer cell line); experiment: Western blot of Rb protein expression after oligonucleotide transfection; assay type: cell-based, human; conditions: SNU475 transfected with 1 uM oligonucleotide, compared to sense Rb oligonucleotide transfectants
Method: An Rb-positive cancer cell SNU475 was cultured overnight in 6-well plate (5×10^6 cancer cells per well) with RPMI1640 medium. Sense or antisense Rb oligonucleotide, as described in Example 4, was transfected to the cultured cancer cells using Lipofectamine-PLUS (Gibco BRL, Grand Island, N.Y.) with the following procedures. Sense or antisense Rb oligonucleotide was diluted (final 1 uM) in fetal bovine serum-free RPMI1640 medium. PLUS reagent (Gibco BRL, NY, USA) was added, mixed well, and incubated at room temperature for 15 minutes. During this incubation, Lipofectamine was diluted in fetal bovine serum-fee RPMI1640 medium in separate test tubes. After 15 minutes, 2 solutions were mixed well and incubated at room temperature for 30 minutes for induction of oligonucleotide-Lipofectamine complex formation. During this incubation, the medium in overnight culture of the cancer cells was changed with fresh fetal bovine serum-free RPMI1640 medium. The solution containing oligonucleotide-Lipofectamine complex was carefully dropped on each culture plate and incubated at 37° C. for 3 hours. […]
Nuclear protein fraction was prepared to examine the Rb expression in SNU475 cell line transfected with sense or antisense Rb oligonucleotide by Western blotting. […] The protein concentration in the supernatant was determined and used for Western blotting. […]

CC(=C\C=C\C(C)=C\[C@H](O)[C@@H](O)C[C@H](C)O)/C=C(C)/C=C/C(=O)O[C@H]1CCCC(=O)O[C@@H]([C@@H](C)C/C(C)=C/[C@@H](C)[C@H](O)C[C@@H](C)O)C/C=C(\C)C[C@@H]1C [mycolactone]
inhibition of tube formation maintained until ([1]; mycolactone 1 μg): 7.5 h
tube formation ([1]; mycolactone 1 μg, after 4 hour): inhibited
tube formation ([1]; mycolactone 5 μg, after 4 hours): almost completely inhibited
cell death with prolonged treatment (murine L929 cell line; L929, prolonged treatment): apoptosis
cytopathic effects (murine L929 cell line; L929): detaching of cells from culture plates and cell rounding-up
time to G1 cell cycle arrest (murine L929 cell line; L929): ≤ 48 h
cell death with prolonged treatment (murine J779 cell line; J779, prolonged treatment): apoptosis
time to G1 cell cycle arrest (murine J779 cell line; J779): ≤ 48 h
morphology by TEM (Hep3B cancer cells): typical apoptosis morphologies
mRNA expression of bcl-2 [2]: very low mRNA expression without significant change
mRNA expression of bcl-w [2]: No change
mRNA expression of mcl-1 ([2]; after 4 hours, maintained until 24 hours): decreased slowly
mRNA expression of mcl-1 ([2]; at 2 hour): increased transiently
mRNA expression of bcl-XL ([2]; starting at 8 hours until 24 hours): decrease
mRNA expression of pro-apoptotic genes (bad, bak, and bax) ([2]; until 24 hours after treatment): no change
tumor tissue inside the body at sacrifice ([3]; day 45, T mouse): not to have any tumor tissue
tumor, treated (T) versus control (C) mouse ([3]; first week, 20 μg injected into tumor, 4 days on, 3 days rest): no significant difference
tumor ([3]; fourth week, T mouse, 20 μg injected into tumor): disappeared
tumor volume ([3]; second week, T mouse, 20 μg injected into tumor, 105.9 mm^3 at first injection): 63.8 mm^3
tumor volume ([3]; third week, T mouse, 20 μg injected into tumor): 20.8 mm^3
condition of the treated mouse ([3]; until the day 45, T mouse): healthy
cancer cell death, cell morphology under light microscope [4]: Significant cell death
CPP32 caspase activation maintained until [5]: 24 h
CPP32 caspase activation started at [5]: 4 h
cleavage of poly-ADP-ribose polymerase started at [5]: 8 h
cleavage of poly-ADP-ribose polymerase ([5]; after 48 hours): completely cleaved

antisense Rb oligonucleotide: phosphorothioate-backbone antisense oligonucleotide targeting the protein initiation codon region of human Rb mRNA (antisense GGGTTTTGGGCGGCATGA; all phosphorothioate, sugars by position and methylation of C not given here)
Rb protein expression [6]: Significant time-dependent decrease
